Data published in patent US10806747B2, “Methods for treating infection including sepsis via P2X receptor modulation” (Rutgers, The State University of New Jersey, priority 2017, dated 2020).

Columns and labels:
[1] = test system: sepsis by cecal ligation and puncture (CLP); test: CLP sepsis model: survival, bacterial load, plasma BUN; format: in vivo, mice; settings: for survival: monitored 7 days, vs vehicle
Description: WT and P2X4R^−/− mice were injected with 10 mg/kg ivermectin or its vehicle and subjected to CLP. The survival of mice was monitored for 7 days *P<0.05-P2X4R^−/− injected with vehicle (n=21) vs. WT injected with vehicle (n=25); ***P<0.001—WT injected with ivermectin (n=20); vs. WT injected with vehicle (n=25). In FIGS. 3B and 3C bacterial burden was determined by counting the number of CFUs on blood agar plates after serial dilution of blood and peritoneal lavage samples. Blood and lavage fluid were collected at 16 hours after CLP. *P<0.05 vs. veh (veh and 10 mg/kg ivermectin; n=10 and 9, respectively. In FIG. 3D BUN was determined from plasma of ivermectin- or vehicle-treated mice 16 hours after CLP. *P<0.05. Veh and 10 mg/kg ivermectin; n=10 and 9, respectively. FIGS. 3E and 3F show ivermectin increasing intracellular killing of E. coli in cultured macrophages. Peritoneal macrophages were infected with E. coli for 90 minutes and then pulsed with ATP for 5 minutes. ATP was then removed and the macrophages were incubated with ivermectin for 30 minutes. Thereafter the ivermectin was removed and the cells were incubated in medium containing gentamicin for another 2 hours. The cells were then lysed and serial dilutions of intracellular content were spread onto LB agar plates. *P<0.05 (n=5-6); **P<0.01 (n=5-6). Data are expressed as mean±SEM. All results are representatives of three experiments.
From these studies, it was believed that pharmacological activation of P2X4Rs would have an effect opposite to that of inactivating these receptors genetically; that is that the pharmacological activation of P2X4Rs would be protective. To examine this, mice were injected with ivermectin, an anti-helminth drug that is a partial allosteric activator of P2X4Rs (Khakh et al. J Neurosci 1999 19:7289-7299) 90 minutes after performing CLP. […] Furthermore, ivermectin potentiated the ATP stimulation of bacterial killing in macrophages in vitro (FIGS. 3E and 3F).
Male C57B16/J rmce were anesthetized using Nembutal, and a 2-cm midline laparotomy was performed to allow exposure of the cecum with adjoining intestine. Approximately two-thirds of the cecum was tightly ligated with a 3.0 silk suture, and the ligated part of the cecum was perforated twice (through and through) with a 20-gauge needle. […] The mice were resuscitated with 1 ml of physiological saline injected subcutaneously and returned to their cages with free access to food and water, and survival was monitored for 7 days (p<0.05). Survival curves were analyzed using two-tailed Fisher's exact test.
Bacterial load in mice subjected to CLP was measured at 16 h after surgery. Dilutions of blood or peritoneal lavage fluid were cultured on tryptose blood agar plates, and the number of bacterial colonies was counted. […]

peritoneal macrophages [2] = test: Intracellular killing of E. coli by peritoneal macrophages (gentamicin protection, CFU count); format: cell-based, murine; settings: for effect on ATP-stimulated E. coli killing: antagonist pretreatment 30 min before 5 min ATP pulse
Description: FIGS. 1A through 1K show ATP augments bacterial killing in macrophages in a P2X4R-dependent fashion. […] Peritoneal macrophages from WT and P2X7R^−/− mice were infected with E. coli (FIG. 1A) or with S. aureus (FIG. 1B) for 90 minutes, which was followed by pulsing the cells with ATP for 5 minutes. Subsequently, after a 2-hour incubation with 400 ng/ml gentamicin, the macrophages were lysed and serial dilutions of their intracellular content were spread onto LB agar plates. *P<0.05; **P<0.01 vs. E. coli; n=5-6. FIG. 1C and FIG. 1D show ATP augments bacterial killing independently of adenosine. Macrophages from WT and CD39^−/− mice were infected with E. coli, pulsed with ATP (FIG. 1C) or adenosine (FIG. 1D), and then incubated with gentamicin for 2 hours, which was followed by intracellular CFU counting. *P<0.05; **P<0.01 vs. E. coli; n=4-6. […] Peritoneal macrophages were isolated from WT mice and RNA was extracted from untreated cells. RNA was transcribed and quantitative PCRs were conducted. n=6. FIGS. 1F through 1K show P2X4Rs are responsible for the ATP-stimulated increase in bacterial killing in macrophages. Peritoneal macrophages were infected with E. coli for 90 min, pretreated with (FIG. 1F) P2X4R antagonist (5-BDBD) or (FIG. 1G) P2X7R antagonist (A438079) for 30 minutes before an ATP pulse for 5 minutes, and then incubated with gentamicin for 2 hours. Killing was determined at the end of this incubation period. *P<0.05; ***P<0.001 vs. E. coli treatment; ^##P<0.01 vs. ATP/E. coli treatment; n=5-6. In FIG. 1H, macrophages were transfected with scrambled siRNA- or P2X4 siRNA, and the effect of ATP on bacterial killing determined. **P<0.01 vs. E. coli treatment; n=6. In FIG. 1I, peritoneal macrophages from WT and P2X4R^−/− mice were infected with E. coli, pulsed with ATP, incubated with gentamicin for 2 hours and then bacterial killing was determined. **P<0.01 vs. E. coli treatment; n=6. In FIGS. 1J and 1K, phorbol 12-myristate 13-acetate (PMA)-differentiated human monocytic THP-1 cells were infected with E. coli for 90 minutes, exposed to ATP for 5 minutes and then killing was determined as described above for peritoneal macrophages (FIG. 1J). In other experiments, THP-1 cells were infected with E. coli, pretreated with 5-BDBD or vehicle for 30 minutes before a 5-minutes ATP pulse (FIG. 1K), two hours after which intracellular CFUs were determined. **P<0.01; vs. E. coli treatment; ^##P<0.01 vs. ATP/E. coli treatment. n=6-7. Data are expressed as mean±SEM. All results are representatives of three experiments.
Naive, thioglycollate-elicited murine peritoneal macrophages were treated with E. coli (K-12 strain) at 1:15 cell:bacteria ratio in vitro and incubated for 90 minutes to allow for phagocytosis to occur. After 90 minutes, the cells were washed to remove non-phagocytosed bacteria and treated with increasing concentrations (0.1 to 3 μM) of ATP or adenosine for 5 minutes. After 5 minutes, the medium was removed and the cells were washed extensively.
New medium was added that was supplemented with 100 μg/mL gentamicin. This allowed the maturation of the phagosome and killing of the phagocytosed bacteria. The cells were incubated for approximately 2 hours at 37° C. After incubation, the cells were washed 5 times to remove the gentamicin and were lysed. Colony forming units (CPUs) were determined after an overnight incubation on agar.

peritoneal macrophages [3] = test: Intracellular killing of S. aureus by peritoneal macrophages (CFU count); format: cell-based, mice; settings: WT and P2X7R−/− macrophages; S. aureus 90 min, ATP pulse 5 min
Description: (§1) FIGS. 1A through 1K show ATP augments bacterial killing in macrophages in a P2X4R-dependent fashion. […] Peritoneal macrophages from WT and P2X7R^-/- mice were infected with E. coli (FIG. 1A) or with S. aureus (FIG. 1B) for 90 minutes, which was followed by pulsing the cells with ATP for 5 minutes. Subsequently, after a 2-hour incubation with 400 ng/ml gentamicin, the macrophages were lysed and serial dilutions of their intracellular content were spread onto LB agar plates. *P<0.05; **P<0.01 vs. E. coli; n=5-6. FIG. 1C and FIG. 1D show ATP augments bacterial killing independently of adenosine. […] RNA was transcribed and quantitative PCRs were conducted. n=6. […] Killing was determined at the end of this incubation period. *P<0.05; ***P<0.001 vs. E. coli treatment; ^##P<0.01 vs. ATP/E. coli treatment; n=5-6. In FIG. 1H, macrophages were transfected with scrambled siRNA- or P2X4 siRNA, and the effect of ATP on bacterial killing determined. **P<0.01 vs. E. coli treatment; n=6. In FIG. 1I, peritoneal macrophages from WT and P2X4R^-/- mice were infected with E. coli, pulsed with ATP, incubated with gentamicin for 2 hours and then bacterial killing was determined. **P<0.01 vs. E. coli treatment; n=6. […] Data are expressed as mean±SEM. […]

[4] = test system: murine polymicrobial sepsis; settings: injected ATP; cited from earlier work
[5] = test system: human monocytic THP-1 cells; test: Intracellular killing of E. coli by PMA-differentiated THP-1 cells; format: cell-based
Description: as §1

With 22,23-dihydroavermectin [ivermectin] the “plasma BUN levels” value ([1]; 16 hours after CLP, 10 mg/kg ivermectin vs vehicle) was “diminished plasma BUN levels”, the survival ([1]; P2X4R−/− mice, 10 mg/kg ivermectin, CLP) was “failed to improve survival” and the survival ([1]; WT mice, 10 mg/kg ivermectin 90 minutes after CLP) was “improved survival”. For the same compound, the “bacterial burden (CFUs)” value ([1]; blood and peritoneal lavage, 16 hours after CLP, 10 mg/kg ivermectin vs vehicle) was “decreased bacteria” and the “ATP stimulation of bacterial killing in macrophages” value (peritoneal macrophages [2]; E. coli 90 min, ATP pulse 5 min, then ivermectin 30 min, gentamicin 2 h) was “potentiated”.
In the case of `Nc1ncnc2c1ncn2[C@@H]1O[C@H](COP(=O)(O)OP(=O)(O)OP(=O)(O)O)[C@@H](O)[C@H]1O` [ATP, adenosine triphosphate], the “intracellular bacterial killing (S. aureus)” value (peritoneal macrophages [3]) is listed as “increases intracellular bacterial killing”, the macrophage-mediated bacterial killing [4] is listed as “augments macrophage-mediated bacterial killing” and the “killing of E. coli” value ([5]; ATP 5 min) is listed as “increased killing of E. coli”. For the same compound, the “killing of E. coli” value (peritoneal macrophages [2]; WT and P2X7R−/− macrophages, E. coli 90 min, ATP pulse 5 min, gentamicin 2 h) was “increased killing of E. coli”, the “killing of E. coli” value (peritoneal macrophages [2]; macrophages from P2X4R−/− mice, ATP pulse) was “failed to stimulate E. coli killing” and the “killing of E. coli” value (peritoneal macrophages [2]; macrophages from WT littermate controls, ATP pulse) was “dose-dependent increase in killing”. The “killing of E. coli” value (peritoneal macrophages [2]; macrophages lacking CD39 (CD39−/−), ATP pulse) was “also killed E. coli” and the “stimulatory effect of ATP on E. coli killing” value (peritoneal macrophages [2]; macrophages with P2X4R silencing vs scrambled control) was “largely reversed”.
With `O=C1CN=C(c2cccc(Br)c2)c2oc3ccccc3c2N1` [P2X4R antagonist] the “effect on ATP-stimulated E. coli killing” value ([5]; antagonist 30 min before 5 min ATP pulse) was “inhibited the stimulatory effect of ATP on E. coli killing” and the “effect on ATP-stimulated E. coli killing” value (peritoneal macrophages [2]) was “prevented the stimulatory effect of ATP on E. coli killing”.
For `Clc1cccc(-c2nnnn2Cc2cccnc2)c1Cl` [P2X7R antagonist], the “effect on ATP-stimulated E. coli killing” value (peritoneal macrophages [2]) was “not P2X7R antagonist (FIG. 1G) prevented the stimulatory effect of ATP”.
In the case of `Nc1ncnc2c1ncn2[C@@H]1O[C@H](CO)[C@@H](O)[C@H]1O` [adenosine], the “killing of E. coli” value (peritoneal macrophages [2]; macrophages from WT and CD39−/− mice, adenosine pulse) is reported as “failed to increase E. coli killing”.
